The values that follow come from ChEMBL document CHEMBL4184137, “Lysine Deacetylase Inhibitors in Parasites: Past, Present, and Future Perspectives” (J Med Chem, 2017).

The test system of series [1] is Leishmania infantum. Put plainly: Antileishmanial activity against amastigote stage of Leishmania infantum infected in PMA-differentiated human THP-1 cells after 3 days by luciferase assay. Type of series: functional, organism-based. The following applies: THP-1, 72 h.
Series [2] addresses T1, Putative silent information regulator 2 (Leishmania infantum, UniProt A0A6L0XH39).
T1 sequence (A0A6L0XH39 whole entry): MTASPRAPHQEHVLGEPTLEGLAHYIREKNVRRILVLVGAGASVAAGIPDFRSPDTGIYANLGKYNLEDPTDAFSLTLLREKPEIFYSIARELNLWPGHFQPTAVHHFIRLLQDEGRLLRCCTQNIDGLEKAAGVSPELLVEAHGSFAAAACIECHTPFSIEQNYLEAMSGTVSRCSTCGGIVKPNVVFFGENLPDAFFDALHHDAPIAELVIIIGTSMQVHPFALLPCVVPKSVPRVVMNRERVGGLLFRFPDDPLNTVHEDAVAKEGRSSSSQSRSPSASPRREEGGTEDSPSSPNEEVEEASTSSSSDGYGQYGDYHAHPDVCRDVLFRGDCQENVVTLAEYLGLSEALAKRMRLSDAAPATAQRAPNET
Put plainly: Inhibition of N-terminal His6-tagged recombinant Leishmania infantum SIR2RP1 expressed in Escherichia coli in presence of NAD+ by fluorimetric method.

For series [3], the system named is Plasmodium falciparum. Put plainly: Antimalarial activity against Plasmodium falciparum. Type of series: functional, organism-based.
Another series deals with Toxoplasma gondii. As to the kind of experiment: Antiparasitic activity against tachyzoite stage of Toxoplasma gondii. Type of series: functional, organism-based.
The subject of series [4] is Plasmodium falciparum. As to the kind of experiment: Antimalarial activity against Plasmodium falciparum infected in human erythrocytes preincubated for 48 hrs followed by [3H]-hypoxanthine addition measured after 24 hrs by scintillation counting assay. It is filed as functional, organism-based.
Series [5] relates to Trypanosoma brucei brucei. Put plainly: Antitrypanosomal activity against Trypanosoma brucei brucei measured after 22 hrs by fluorescence-based Alamar blue viability assay. It is filed as functional, organism-based. Background: Resazurin is reduced to fluorescent resorufin, in cell work by metabolically active cells.
A further series relates to NFF. Put plainly: Cytotoxicity against human NFF cells after 72 hrs by SRB assay. Type of series: cell-based. In general terms: The SRB assay estimates cell density from bound dye.
Series [6] addresses T2, Histone deacetylase (Plasmodium falciparum) (UniProt Q9XYC7).
T2 sequence (whole entry): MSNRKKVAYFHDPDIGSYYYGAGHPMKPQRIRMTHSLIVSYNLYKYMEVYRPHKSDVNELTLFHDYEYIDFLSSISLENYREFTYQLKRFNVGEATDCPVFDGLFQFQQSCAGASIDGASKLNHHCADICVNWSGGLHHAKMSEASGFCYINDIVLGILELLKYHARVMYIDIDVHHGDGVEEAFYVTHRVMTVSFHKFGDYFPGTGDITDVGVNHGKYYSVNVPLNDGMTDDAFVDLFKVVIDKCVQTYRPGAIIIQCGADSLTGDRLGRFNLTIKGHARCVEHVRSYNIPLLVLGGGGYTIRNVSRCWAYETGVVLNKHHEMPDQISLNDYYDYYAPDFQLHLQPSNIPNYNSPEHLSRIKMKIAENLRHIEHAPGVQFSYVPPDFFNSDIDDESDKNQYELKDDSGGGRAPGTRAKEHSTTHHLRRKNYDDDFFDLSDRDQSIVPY
Put plainly: Inhibition of recombinant HDAC1 in recombinant Plasmodium falciparum at 1 uM using Ac-RGK(Ac)-AMC fluorogenic peptide as substrate preincubated for 1 hr followed by substrate addition measured after 10 min by fluorescence assay.

Another series concerns HEK293. Put plainly: Cytotoxicity against HEK293 cells after 48 hrs by resazurin assay. It is filed as cell-based. The following applies: Homo sapiens, HEK293, 48 h.
Series [7] in a line: Selectivity index, ratio of IC50 for human NFF cells to IC50 for Plasmodium falciparum. Type of series: toxicity. The following applies: read-out: Ratio IC50.
For series [8], the system named is Plasmodium falciparum. Put plainly: Gametocytocidal activity against transgenic GFP-fused Plasmodium falciparum NF54 […] gametocytes after 24 hrs by MitoTracker Red CM-H2XRos late-stage gametocyte imaging-based viability assay. It is filed as functional, organism-based. The note with it: NF54, 24 h.
The nature of series [9]: Selectivity index, ratio of IC50 for human NFF cells to IC50 for transgenic GFP-fused Plasmodium falciparum NF54 […] gametocyte. Type of series: toxicity. The following applies: read-out: Ratio IC50.
Series [10] deals with Plasmodium falciparum. As to the kind of experiment: Antimalarial activity against Plasmodium falciparum infected in type O-positive erythrocytes by [3H]-hypoxanthine incorporation assay. Type of series: functional, organism-based.
Series [11] deals with Plasmodium falciparum. As to the kind of experiment: Antimalarial activity against Plasmodium falciparum using Malstat reagent by parasite lactate dehydrogenase assay. Type of series: functional, organism-based.
The nature of series [12]: Selectivity index, ratio of IC50 for African green monkey Vero cells to IC50 for Plasmodium falciparum D6. It is filed as toxicity. The following applies: read-out: Ratio IC50.
A further series has as its target T3, Histone deacetylase (Plasmodium falciparum, UniProt Q9XYC7).
T3 sequence (Q9XYC7 whole entry): T2 sequence (whole entry)
Put plainly: Inhibition of recombinant Plasmodium falciparum HDAC1 using HDAC substrate-3 after 30 mins by fluorescence assay.

Series [13] in a line: Selectivity index, ratio of IC50 for African green monkey Vero cells to IC50 for Plasmodium falciparum W2. It is filed as toxicity. The note with it: read-out: Ratio IC50.
In series [14] the test system is Plasmodium falciparum. As to the kind of experiment: Antiplasmodial activity against Plasmodium falciparum 3D7 assessed as growth inhibition after 24 hrs by measuring incorporation of [3H]-hypoxanthine by liquid scintillation counting method. Type of series: functional, organism-based.
Series [15] is described as follows: Inhibition of Plasmodium falciparum Sir2A.
Series [16] concerns Leishmania infantum. Put plainly: Antileishmanial activity against amastigote stage of Leishmania infantum MHOM/MA671TMAP263 expressing luciferase after 72 hrs by luciferase assay. The note with it: MHOM/MA671TMAP263, 72 h. Type of series: functional, organism-based.
The test system of another series is Trypanosoma cruzi. Put plainly: Antitrypanosomal activity against epimastigotes of Trypanosoma cruzi […] by Alamar Blue assay. It is filed as functional, organism-based.
Series [17] concerns Trypanosoma brucei. As to the kind of experiment: Inhibition of recombinant Trypanosoma brucei HDAC3 at 5 uM after 30 mins.
Series [18] concerns Trypanosoma brucei. Put plainly: Inhibition of recombinant Trypanosoma brucei HDAC1 at 5 uM after 30 mins.
Series [19] deals with Schistosoma mansoni. Put plainly: Antiparasitic activity against Schistosoma mansoni assessed as cumulative egg reduction at 20 uM. Details: scale not given: the % may be the effect or the level left. Type of series: functional.
The test system of series [20] is Schistosoma mansoni. As to the kind of experiment: Antiparasitic activity against Schistosoma mansoni assessed cell viability at 20 uM after 5 days. It is filed as functional.
The subject of series [21] is Schistosoma mansoni. As to the kind of experiment: Antiparasitic activity against Schistosoma mansoni assessed as pairing at 20 uM after 6 days relative to control. It is filed as functional.

Take `O=C1c2cccc3cccc(c23)C(=O)N1CCNCCCCCCCCCNCCN1C(=O)c2cccc3cccc(c23)C1=O`: the figures for the IC50 (with Leishmania infantum [1]; in series [2]) were 1 to 10 µM and 5.7 to 54.7 µM, respectively.

For the compound `Oc1ccc(/C=C/c2cc(O)cc(O)c2)cc1` [RESVERATROL], the midpoint of inhibition with Plasmodium falciparum [3], the IC50, lay at 60 µM.

As to `O=C(CCCCCCC(=O)NO)NO` [SUBEROHYDROXAMIC ACID], the IC50 (in general, the concentration that gives 50% inhibition) with Toxoplasma gondii is 0.213 µM; in the series on Plasmodium falciparum [4] it was 0.8 to 2.3 µM.

Consider `O=C1c2cccc3cccc(c23)C(=O)N1CCNCCCCCNCCN1C(=O)c2cccc3cccc(c23)C1=O`, for which the results for the IC50 (with Leishmania infantum [1]; in series [2]) were 1 to 10 µM and 5.7 to 54.7 µM, respectively.

Consider `Cc1ccc(C(=O)Nc2ccc(S(=O)(=O)O)c3cc(S(=O)(=O)O)cc(S(=O)(=O)O)c23)cc1NC(=O)c1cccc(NC(=O)Nc2cccc(C(=O)Nc3cc(C(=O)Nc4ccc(S(=O)(=O)O)c5cc(S(=O)(=O)O)cc(S(=O)(=O)O)c45)ccc3C)c2)c1` [SURAMIN], for which the IC50 in [2] is 7 µM.

Consider `O=C(/C=C/c1cccc(S(=O)(=O)Nc2ccccc2)c1)NO` [BELINOSTAT], for which the IC50 in series [5] is 2.6 µM; in the series on NFF, 1.4 to 2.4 µM; in the series on Plasmodium falciparum [4], 0.06 to 0.13 µM; in the series with HEK293 it was 1.4 to 2.4 µM. In addition, the inhibition – broadly, the percentage by which the read-out fell short of the control – in [6] came to 78.5%.

Turning to `O=C1c2cccc3cccc(c23)C(=O)N1CCNCCCCCCCCCCCCNCCN1C(=O)c2cccc3cccc(c23)C1=O`, the IC50 in the series with Leishmania infantum [1] was 1 to 10 µM; in series [2] it was 5.7 to 54.7 µM.

With `O=C1c2cccc3cccc(c23)C(=O)N1CCNCCCCCCCCNCCN1C(=O)c2cccc3cccc(c23)C1=O`, the IC50 in the series on Leishmania infantum [1] lay within 1 to 10 µM; in series [2], 5.7 to 54.7 µM.

In the series with Toxoplasma gondii, `O=C(CCCCCN1C(=O)c2cccc3cccc(c23)C1=O)NO` had an IC50 of 0.039 µM.

Turning to `O=C(CCCCCONC(=O)Nc1cccc2ccccc12)NO`, the 50% inhibitory concentration (IC50) was 19.5 µM in the series with NFF, 2.12 to 2.25 µM in the series with Plasmodium falciparum [8] and 0.25 to 0.32 µM with Plasmodium falciparum [10]. Besides, the selectivity ratio in series [7] was 36 to 78; in series [9] it was 9.

As to `O=C1c2cccc3cccc(c23)C(=O)N1CCNCCCNCCCCNCCCNCCN1C(=O)c2cccc3cccc(c23)C1=O`, the IC50 with Leishmania infantum [1] was in the range of 1 to 10 µM; in series [2] it was 5.7 to 54.7 µM.

Turning to `CC[C@H]1OC(=O)[C@H](C)[C@@H](O[C@H]2C[C@@](C)(OC)[C@@H](O)[C@H](C)O2)[C@H](C)[C@@H](O[C@@H]2O[C@H](C)C[C@H](N(C)Cc3ccc(-c4cn(CCCCCCC(=O)NO)nn4)cc3)[C@H]2O)[C@](C)(O)C[C@@H](C)CN(C)[C@H](C)[C@@H](O)[C@]1(C)O`, the figures for the IC50 with Plasmodium falciparum [11] and on Histone deacetylase were 0.094 to 0.226 µM and 0.029 µM, respectively. Moreover, the selectivity ratio in series [12] was more than 20.7; in series [13], more than 47.6.

Consider `O=C1c2cccc3cccc(c23)C(=O)N1CCNCCCCNCCCNCCN1C(=O)c2cccc3cccc(c23)C1=O`, for which the IC50 in the series on Leishmania infantum [1] was 1 to 10 µM; in series [2], 5.7 to 54.7 µM.

For the compound `O=C1c2cccc3cccc(c23)C(=O)N1CCNCCCCCCCNCCN1C(=O)c2cccc3cccc(c23)C1=O`, the figures for the IC50 (in the series on Leishmania infantum [1]; in [2]) were 1 to 10 µM and 5.7 to 54.7 µM, respectively.

With `CCCC(CCC)C(=O)O` [VALPROIC ACID], in the series on Plasmodium falciparum [3], the IC50 is more than 100 µM.

As to `O=C1c2cccc3cccc(c23)C(=O)N1CCNCCNCCNCCN1C(=O)c2cccc3cccc(c23)C1=O`, the values for the IC50 (in the series on Leishmania infantum [1]; in series [2]) were 1 to 10 µM and 5.7 to 54.7 µM, respectively.

As to `O=C1c2cccc3cccc(c23)C(=O)N1CCNCCCCCCNCCN1C(=O)c2cccc3cccc(c23)C1=O`, the IC50 lay within 1 to 10 µM in the series on Leishmania infantum [1] and 5.7 to 54.7 µM in series [2].

As to `O=C(/C=C/c1ccc(C(=O)NO)cc1)NO`, in the series on Plasmodium falciparum [4], the IC50 was 0.9 to 1.1 µM.

Consider `O=C1c2cccc3cccc(c23)C(=O)N1CCNCCCCNCCN1C(=O)c2cccc3cccc(c23)C1=O`, for which the IC50 fell in the range of 1 to 10 µM with Leishmania infantum [1] and 5.7 to 54.7 µM in series [2].

For `O=C1CCc2c(ccc3ccccc23)O1` [SPLITOMICIN], the IC50 is more than 10 µM with Plasmodium falciparum [14] and more than 400 µM in series [15].

On to `Cc1[nH]c2ccccc2c1CCNCc1ccc(/C=C/C(=O)NO)cc1` [PANOBINOSTAT], for which the IC50 was 1.69 µM in series [5], 0.07 to 0.18 µM in the series with NFF, 0.01 to 0.03 µM with Plasmodium falciparum [4] and 0.07 to 0.18 µM with HEK293. Besides, the inhibition in [6] worked out at 100%.

`NC(=O)c1cccnc1` [NIACINAMIDE]: the IC50 in the series on Plasmodium falciparum [14] was 9900 µM; with Leishmania infantum [16], 5500 to 13900 µM; in series [2], 40 µM; in series [15], 51 µM. For the same compound, in the series with Trypanosoma cruzi, the EC50 (commonly the concentration needed to bring the measured effect to its halfway point) was found to be 25800 µM.

Regarding `O=C1c2cccc3cccc(c23)C(=O)N1CCNCCCNCCCNCCN1C(=O)c2cccc3cccc(c23)C1=O`, the IC50 in the series on Leishmania infantum [1] fell in the range of 1 to 10 µM; in series [2] it was 5.7 to 54.7 µM.

With `CC(/C=C/C(=O)NO)=C\[C@@H](C)C(=O)c1ccc(N(C)C)cc1` [TRICHOSTATIN], the IC50 with Toxoplasma gondii stood at 0.041 µM; in [5] it was 7 µM. Also, the inhibition in the series with Trypanosoma brucei [17] and with Trypanosoma brucei [18] was more than 50% throughout.

For `O=C1c2cccc3cccc(c23)C(=O)N1CCNCCCCCCCCCCNCCN1C(=O)c2cccc3cccc(c23)C1=O`, the figures for the half-maximal inhibitory concentration (IC50) (in the series on Leishmania infantum [1]; in series [2]) were 1 to 10 µM and 5.7 to 54.7 µM, respectively.

Regarding `O=C1NC(=S)NC(=O)C1=Cc1cc2ccccc2[nH]1`, the values for the Activity with Schistosoma mansoni [19], in the series with Schistosoma mansoni [20] and in the series with Schistosoma mansoni [21] were 65%, 100% and 100%, respectively.
